Several values for one entry are separate records, joined by “and”; a condition that tells them apart may be missing. Equal values may be shown once.
How the values were obtained:
MRC5 normal cell line = assay: MTT cytotoxicity against normal cell line MRC5; assay type: cell-based; details: for IC50: Homo sapiens, MRC5, MTT assay, normal cell line; for SI (Selectivity Index): IC50 value normal cell (MRC5)/IC50 value cancer cell (MCF-7)
Method: (§1) Cytotoxicity of the compounds was measured by detecting the ability of cells in transforming MTT into a purple formazan dye. The different cell lines were provided by the National Cell Bank of Iran (Pastor Institute, Tehran, Iran). The required materials and reagents were purchased from Sigma. After the cell culture in RPMI-1640 medium and DMEM containing 10% FBS (Gibco, Milano, Italy), the suspension of MCF-7 (7000) and other cells (5000) were poured into 96 well plates and incubated in a humidified incubator containing 5% CO2 at 37 °C for 24 h. Subsequently, a solution of the compounds in DMSO was added to these plates and incubated for 48 h. After incubation, the solution of 5% 3-(4,5-Dimethyl-2-thiazolyl)-2,5-diphenyl-2H-tetrazolium bromide (MTT) was added to all the wells and incubation was continued for another 4 h. The record of color intensity of the formazan solution was at 570 nm by Bio-Rad microplate reader (Model 680) which reflects the cell growth condition.

MCF-7 (breast cancer) = assay: MTT antiproliferative assay, MCF-7; assay type: cell-based; details: Homo sapiens, MCF7, 48 h incubation
Method: (§2) Two series of new tetrahydropyridothienopyrimidines were evaluated for their cytotoxicity against a panel of cell lines, including MCF-7 (breast cancer), SW480 (colon cancer), PC-3 (prostate cancer), HEPG-2 (liver cancer) and HUVEC (human umbilical vein endothelial cell) using 3-(4,5-dimethyl- thiazol-2-yl)-2,5-diphenyltetrazolium bromide (MTT) assay. Sorafenib was used as a positive control. The cytotoxicity is expressed as the concentration that inhibits 50% of cell viability (IC50). […] The preliminary SAR is evaluated on the basis of cytotoxicity results of phenyl derivatives (11a–k) and pyridine derivatives (11l–11y).The mesomeric effect didn’t improve the cytotoxicity of compound 11d in the first series.
as §1

PC-3 (prostate cancer) = assay: MTT antiproliferative assay, PC-3; assay type: cell-based; details: 48 h incubation
Method: as §2, §1

HUVEC cells [1] = assay: Annexin V/PI flow cytometry apoptosis analysis, HUVEC; assay type: cell-based, human; details: IC50 concentration; for Early apoptotic cells (Q3) / Late apoptotic cells (Q2): 48 h, one replicate
Method: (§3) The experiment was conducted by flow cytometry analysis of […] cells with propidium iodide (PI) and annexin V-fluorescein isothiocyanate (annexine V-FITC).
(§4) Then, cells were trypsinized, rinsed with phosphate-bufferede buffered saline (PBS) and then centrifuged at 1200 rpm for 3 min. After this, the binding buffer (500 μL) was added to the resulting cells, followed by addition and mixing with […] and PI (5 μL). After this, the samples were incubated in dark for 10 to 15 min at room temperature, and then the cellular analysis was measured by flow cytometer (FACS Calibur Bectone-Dickinson).

HEPG-2 (liver cancer) = assay: MTT antiproliferative assay, HEPG-2; assay type: cell-based; details: Homo sapiens, HepG2, 48 h incubation
Method: as §2, §1

MCF-7 cells [2] = assay: Annexin V/PI flow cytometry apoptosis analysis, MCF-7; assay type: cell-based; details: MCF-7, IC50 concentration
Method: as §3, §4

[3] = tested on: HUVEC (human umbilical vein endothelial cell); assay: MTT antiproliferative assay, HUVEC; assay type: cell-based; details: Homo sapiens, HUVEC; MTT assay, 48 h incubation
Method: as §2, §1

SW480 (colon cancer) = assay: MTT antiproliferative assay, SW480; assay type: cell-based; details: Homo sapiens, SW480, 48 h incubation
Method: as §2, §1

[4] = tested on: chick chorioallantoic membrane (CAM); assay: Chick chorioallantoic membrane (CAM) anti-angiogenic assay; assay type: in vivo; details: IC50 concentration, compared with Sorafenib as positive control
Method: The hydrogen bonding between NH groups of urea and target proteins were known to give rise to better inhibition of an important growth factor receptor (VEGFR-2) involved in the process of angiogenesis. Thus, the chick chorioallantoic membrane (CAM) assay was utilized as an in-vivo technique to evaluate the anti-vascular effects. Therefore, the anti-angiogenic strength of compounds were investigated by a cheap and simple CAM assay (Figs. 4, 5)[32],[33]. The anti-angiogenic strength was measured and compared with DMSO (control) and Sorafenib as a positive control.
All eggs were supplied from (Poultry Breeding Farm, Tehran, Iran). Since the allantois of the chick embryo appears at about 3.5 days of incubation, the corresponding eggs were incubated (37.5 °C, relative humidity: 55–65%). To decrease the risk of infection, the particular regions of the egg, e.g., the front side of the embryo were cleaned and sterilized with 70% EtOH. On the 6th incubation day, a false air sac was created directly over the CAM, permitting its detachment from the shell membrane. The procedure was continued through a square incision over the CAM. The prepared window in a square form (1 × 1 cm), was covered by a flexible film and then transported to the incubator. On the 8th incubation day, the particular paper discs (Whatman) were coated with target agents and placed in the central area of the corresponding window. The surface of CAM was visually evaluated on the 12th incubation day using the stereomicroscope. We decided to use the number and the length of capillary blood vessels as the index of anti-angiogenic activity. Consequently, the prepared images were analyzed by the advantageous software, Image J[22],[23].

MCF-7 cells [5] = assay: Cell cycle analysis by flow cytometry, MCF-7; assay type: cell-based; details: MCF-7, IC50 concentration, 48 h
Method: (§5) We can conclude that compound 11n induces cellular apoptosis in […]. An increase in sub-G1 area is an indicative of apoptosis.
(§6) After trypsinization and rinsing with PBS, the cells were centrifuged at 1200 rpm for 5 min and then incubated with PBS and fixed in ice-cooled 70% ethanol. After washing with PBS, the cells were resuspended in RNase A (0.1 mg/mL) and incubated for 5 h. Then, staining with PI ([…]) and incubation for 15 min were performed. By using Novocyte flow cytometer (ACEA Biosciences) the analysis was done and the calculation of cell cycle distributions was done by NovoExpress 1.1.0 software.

HUVEC and MCF-7 cells = assay: Cell cycle analysis by flow cytometry, cell line not given; assay type: cell-based; details: cell line not stated, IC50 concentration, 48 h
Method: An increase in sub-G1 area is an indicative of apoptosis.
as §6

caspase-3 = assay: Caspase-3 level by ELISA in MCF-7 cells; assay type: cell-based, human; details: 24 h; for Casp3 conc.: 11n at 2.67 μM, Sorafenib at 7.06 μM
Method: The activity of caspase (cysteinyl-aspartate-specific proteases) as intracellular cell death enzymes has been characterized. So, the […] the process[28]–[31].
Caspase-3 activity was measured using a caspase-3 (Active) (human) ELISA kit, MBS450774, according to the manufacturer’s instructions.

HUVEC cells [6] = assay: Cell cycle analysis by flow cytometry, HUVEC; assay type: cell-based, human; details: IC50 concentration, 48 h
Method: as §5, §6

VEGFR-2 = target: T1, VEGFR-2 (Homo sapiens, UniProt P35968); assay: Western blot of VEGFR-2 phosphorylation in HUVECs; assay type: cell-based; details: HUVEC, IC50 concentration, after 48 and 72 h, compared to positive control
T1 construct: endogenous in cells; host or cells: HUVEC
T1 sequence (P35968 20-1356): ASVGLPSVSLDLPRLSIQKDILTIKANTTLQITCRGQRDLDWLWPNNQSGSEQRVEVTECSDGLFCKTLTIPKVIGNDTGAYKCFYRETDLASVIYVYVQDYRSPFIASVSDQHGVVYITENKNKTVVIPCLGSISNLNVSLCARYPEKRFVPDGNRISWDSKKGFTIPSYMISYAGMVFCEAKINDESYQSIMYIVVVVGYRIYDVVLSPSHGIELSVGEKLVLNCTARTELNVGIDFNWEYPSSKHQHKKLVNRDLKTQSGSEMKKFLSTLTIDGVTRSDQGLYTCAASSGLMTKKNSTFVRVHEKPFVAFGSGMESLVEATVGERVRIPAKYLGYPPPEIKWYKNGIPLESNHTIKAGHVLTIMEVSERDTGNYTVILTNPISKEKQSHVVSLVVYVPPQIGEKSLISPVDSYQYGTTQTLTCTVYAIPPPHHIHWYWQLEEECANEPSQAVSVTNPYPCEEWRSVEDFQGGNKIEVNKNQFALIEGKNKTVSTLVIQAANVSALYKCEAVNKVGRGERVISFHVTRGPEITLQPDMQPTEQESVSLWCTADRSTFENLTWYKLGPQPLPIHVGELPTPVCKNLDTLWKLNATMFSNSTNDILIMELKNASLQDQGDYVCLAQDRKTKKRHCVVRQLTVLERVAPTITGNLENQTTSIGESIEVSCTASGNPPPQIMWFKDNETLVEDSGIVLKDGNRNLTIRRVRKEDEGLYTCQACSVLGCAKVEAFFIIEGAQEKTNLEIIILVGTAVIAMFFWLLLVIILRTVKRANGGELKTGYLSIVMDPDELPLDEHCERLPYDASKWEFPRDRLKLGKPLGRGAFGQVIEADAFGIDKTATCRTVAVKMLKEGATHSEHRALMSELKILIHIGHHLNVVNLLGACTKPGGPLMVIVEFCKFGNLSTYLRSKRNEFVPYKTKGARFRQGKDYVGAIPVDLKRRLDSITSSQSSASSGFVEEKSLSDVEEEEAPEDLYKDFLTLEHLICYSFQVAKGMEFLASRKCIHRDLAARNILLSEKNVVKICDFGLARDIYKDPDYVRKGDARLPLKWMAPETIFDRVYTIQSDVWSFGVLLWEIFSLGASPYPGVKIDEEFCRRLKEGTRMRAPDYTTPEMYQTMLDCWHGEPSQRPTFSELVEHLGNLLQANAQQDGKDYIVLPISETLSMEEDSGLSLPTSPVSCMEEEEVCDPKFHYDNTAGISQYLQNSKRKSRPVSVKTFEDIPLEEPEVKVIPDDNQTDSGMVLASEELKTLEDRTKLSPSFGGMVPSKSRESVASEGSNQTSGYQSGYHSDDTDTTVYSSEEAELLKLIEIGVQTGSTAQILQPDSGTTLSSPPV
Method: It was is observed that, after 48 and 72 h, the phosphorylation of VEGFR-2 decreases compared to the positive control (Fig. 7).
After thawing in […] lysis buffer and centrifuge at 1200 rpm, the loading and electrophoresis of proteins on 12% SDSPAGE was performed. Then, they transferred for 1.5 h at 100 V into a nitrocellulose membrane ([…]) and blocked with 5% blocking buffer. After incubation of antibodies at 4 ◦C for 12 h, the detection of immunoblots were performed using the enhanced chemiluminescence (ECL) method.

Compound | IC50 (MRC5 normal cell line) | SI (Selectivity Index) (MRC5 normal cell line) | IC50 (MCF-7 (breast cancer)) | IC50 (PC-3 (prostate cancer)) | Apoptosis induction (in words) (HUVEC cells [1]) | melting point | IC50 (HEPG-2 (liver cancer)) | Apoptosis induction (in words) (MCF-7 cells [2]) | IC50 [3] | IC50 (SW480 (colon cancer)) | Inhibitory effect on growing CAM (in words) [4] | Percentage of cell population in the S phase (MCF-7 cells [5]) | Early apoptotic cells (Q3) (HUVEC cells [1]) | Late apoptotic cells (Q2) (HUVEC cells [1]) | Casp3 conc. (caspase-3) | further results
Cc1cccc(NC(=O)Nc2nnc(Sc3ncnc4sc5c(c34)CCN(Cc3ccccc3)C5)s2)c1 [Compound 11b, 1-(5-((7-benzyl-5,6,7,8-tetrahydropyrido[4',3':4,5]thieno[2,3-d]pyrimidin-4-yl)thio)-1,3,4-thiadiazol-2-yl)-3-(m-tolyl)urea] | 32.1 ± 0.92 µM | 3.9 | 8.22 ± 0.09 µM | 46.8 ± 1.49 µM | unable to induce apoptosis | 138 to 139 °C | 48.1 ± 0.22 µM | unable to induce apoptosis | 18.89 ± 0.09 µM | 67.7 ± 2.53 µM |  |  |  |  |  | 
O=C(Nc1ccc(Cl)c(Cl)c1)Nc1nnc(Sc2ncnc3sc4c(c23)CCN(Cc2ccccc2)C4)s1 [Compound 11h, 1-(5-((7-benzyl-5,6,7,8-tetrahydropyrido[4',3':4,5]thieno[2,3-d]pyrimidin-4-yl)thio)-1,3,4-thiadiazol-2-yl)-3-(3,4-dichlorophenyl)urea] | 41.2 ± 0.45 µM | 4.8 | 8.52 ± 0.02 µM | 70.2 ± 1.92 µM | unable to induce apoptosis | 190 to 192 °C | 53.71 ± 0.5 µM | unable to induce apoptosis | 7.44 ± 0.06 µM | 64.2 ± 2.2 µM | slightly weaker inhibitory effects |  |  |  |  | 
Cc1ccccc1NC(=O)Nc1nnc(Sc2ncnc3sc4c(c23)CCN(Cc2ccncc2)C4)s1 [Compound 11l, 1-(5-((7-(pyridin-4-ylmethyl)-5,6,7,8-tetrahydropyrido[4',3':4,5]thieno[2,3-d]pyrimidin-4-yl)thio)-1,3,4-thiadiazol-2-yl)-3-(o-tolyl)urea] | 24.8 ± 0.36 µM |  | 2.8 ± 0.03 µM | 6.11 ± 0.08 µM |  |  | 9.94 ± 0.07 µM |  | 2.53 ± 0.05 µM | 15 ± 0.38 µM |  | 49.8% | 5.51% | 89.0% |  | Percentage of cells in G0 phase (HUVEC and MCF-7 cells): 97.6%
Cc1cccc(NC(=O)Nc2nnc(Sc3ncnc4sc5c(c34)CCN(Cc3ccncc3)C5)s2)c1 [Compound 11m, 1-(5-((7-(pyridin-4-ylmethyl)-5,6,7,8-tetrahydropyrido[4',3':4,5]thieno[2,3-d]pyrimidin-4-yl)thio)-1,3,4-thiadiazol-2-yl)-3-(m-tolyl)urea] | 33.2 ± 0.44 µM |  | 3.35 ± 0.01 µM | 11.79 ± 0.11 µM |  |  | 27.76 ± 0.13 µM |  | 1.15 ± 0.03 µM | 61.23 ± 0.44 µM | slightly weaker inhibitory effects | 32.9% | 10.1% | 52.5% |  | 
Cc1ccc(NC(=O)Nc2nnc(Sc3ncnc4sc5c(c34)CCN(Cc3ccncc3)C5)s2)cc1 [Compound 11n, 1-(5-((7-(pyridin-4-ylmethyl)-5,6,7,8-tetrahydropyrido[4',3':4,5]thieno[2,3-d]pyrimidin-4-yl)thio)-1,3,4-thiadiazol-2-yl)-3-(p-tolyl)urea] | 38.1 ± 0.81 µM | 14 and 14.2 | 2.67 ± 0.21 µM | 11.35 ± 0.09 µM |  |  | 7.2 ± 0.03 µM |  | 2.09 ± 0.08 µM | 6.84 ± 0.05 µM | slightly weaker inhibitory effects |  | 16.5% | 79.8% | 3.63 ± 0.52 ng/mL | Percentage of cells in G0 phase (MCF-7 cells [5]): 54.3%; FLD (fold change of caspase-3 level) (caspase-3; control = 1): 5.2 fold; Percentage of cells in G0 phase (HUVEC cells [6]): 65.5%; Early apoptotic cells (Q3) (MCF-7 cells [2]; 48 h, one replicate): 22.8%; Late apoptotic cells (Q2) (MCF-7 cells [2]; 48 h, one replicate): 58.2%; Phosphorylation of VEGFR-2 (in words) (VEGFR-2): decreases
CNC(=O)c1cc(Oc2ccc(NC(=O)Nc3ccc(Cl)c(C(F)(F)F)c3)cc2)ccn1 [Sorafenib, reference compound] |  |  | 7.06 ± 0.17 µM | 5.45 ± 0.11 µM |  |  | 29.6 ± 0.31 µM |  | 2.81 ± 0.71 µM | 19.8 ± 0.12 µM |  |  |  |  | 4.54 ± 0.25 ng/mL | 
